In patent US20260217767A1, “NOVEL A4B7 THIOETHER PEPTIDE DIMER ANTAGONISTS” (Protagonist Therapeutics, Inc., priority 2014, published 2026) one finds half-life data, which are given here for five compounds.

The nature of this data set: Simulated Gastric Fluid (SGF) Stability Assay. It is filed as in vitro ADME. The following applies: pig, pH 2, 37° C., dimers, Table 7; for half-life at 20 μM: simulated gastric fluid (SGF) with porcine pepsin; for half-life: simulated gastric fluid (with porcine pepsin). How it is done: Simulated Gastric Fluid (SGF) Stability Assays
Studies were carried out in simulated gastric fluid (SGF) to evaluate intestinal stability of the peptide molecules of the instant invention. SGF was prepared by adding 20 mg NaCl, 32 mg porcine pepsin (MP Biochemicals, catalog 02102599), and 70 μl HCl to 10 ml water (final pH=2). Aliquots of SGF (0.5 ml each) were pre-warmed at 37° C. To start the reaction, 1 μl of peptide stock solution (10 mM in DMSO) was added to 0.5 ml SGF and thoroughly mixed such that the final peptide concentration was 20 μM. The reactions were incubated at 37° C. with gentle shaking. At each time point (0, 15, 30, 60 min) 50 μl aliquots were removed and added to 200 μl acetonitrile containing 0.1% formic acid to quench the reaction. Samples are stored at 4° C. until the end of the experiment and centrifuged at 10,000 rpm for 5 minutes. Aliquots of the supernatant were removed, diluted 1:1 into distilled water containing internal standard, and analyzed by LCMS/MS. Percent remaining at each timepoint was calculated based on the peak area response ratio of test to compound to internal standard. Time 0 was set to 100%, and all later timepoints were calculated relative to time 0. Half-lives were calculated by fitting to a first-order exponential decay equation using GraphPad.

*1 amine or outer side, *2 acyl side, *3 side chain or, on linkers, in order; H or OH if unused. Where a SMILES comes first, the peptide text is derived from it. Bridges are numbered along the chain shown (N, C = ends). Roman numbers before positions name the chains, in order. [ ]: non-standard residue; d: D form. Bip = N[C@@H](Cc1ccc(-c2ccccc2)cc1)C(=O)O; Diglycolyl = O=C(COCC(=O)[*:2])[*:1]; NMeR = CN[C@@H](CCCNC(=N)N)C(=O)O; Tic = O=C(O)[C@@H]1Cc2ccccc2CN1; X1 = O=C(c1ccccc1C[*:2])[*:1]; Pen = CC(C)(S)[C@H](N)C(=O)O

As to `CC(C)C[C@@H]1NC(=O)[C@H]([C@@H](C)O)NC(=O)[C@H](CC(=O)O)NC(=O)[C@H](CO)NC(=O)[C@H](CCCNC(=N)N)N(C)C(=O)c2ccccc2CSC(C)(C)[C@@H](C(=O)N[C@@H](Cc2ccc(-c3ccccc3)cc2)C(=O)N[C@H](CCC(=O)O)C(=O)N[C@H](CCCCN)C(N)=O)NC1=O` [compound 178] (HELM PEPTIDE1{[meR].S.D.T.L.[Pen].[O=C([C@H](Cc1ccc(-c2ccccc2)cc1)N[*:1])[*:2]].[dE].[dK].[am]}|CHEM1{[O=C(c1ccccc1C[*:2])[*:1]]}$PEPTIDE1,CHEM1,1:R1-1:R1|PEPTIDE1,CHEM1,6:R3-1:R2$$$V2.0), the half-life at 20 μM is over 3 h.

Compound `CC(C)C[C@@H]1NC(=O)[C@H]([C@@H](C)O)NC(=O)[C@H](CC(=O)O)NC(=O)[C@H](CO)NC(=O)[C@H](CCCNC(=N)N)N(C)C(=O)c2ccccc2CSC[C@@H](C(=O)N2Cc3ccccc3C[C@H]2C(=O)N[C@H](CCC(=O)O)C(=O)N[C@H](CCCCNC(=O)COCC(=O)NCCCC[C@@H](NC(=O)[C@@H](CCC(=O)O)NC(=O)[C@@H]2Cc3ccccc3CN2C(=O)[C@@H]2CSCc3ccccc3C(=O)N(C)[C@@H](CCCNC(=N)N)C(=O)N[C@@H](CO)C(=O)N[C@@H](CC(=O)O)C(=O)N[C@@H]([C@@H](C)O)C(=O)N[C@@H](CC(C)C)C(=O)N2)C(N)=O)C(N)=O)NC1=O` [compound 184] (I: [NMeR]SDTLC[Tic][dE][dK]-NH2 / II: [NMeR]SDTLC[Tic][dE][dK]-NH2; linker I:9-II:9 via Diglycolyl; linker I:N-I:6, II:N-II:6 via X1) yielded a half-life at 20 μM of over 3 h.

As to `CC(C)C[C@@H]1NC(=O)[C@H]([C@@H](C)O)NC(=O)[C@H](CC(=O)O)NC(=O)[C@H](CO)NC(=O)[C@H](CCCNC(=N)N)N(C)C(=O)c2ccccc2CSC(C)(C)[C@@H](C(=O)N[C@@H](Cc2ccccc2)C(=O)N[C@H](CCC(=O)O)C(=O)N[C@H](CCCCNC(=O)COCC(=O)NCCCC[C@@H](NC(=O)[C@@H](CCC(=O)O)NC(=O)[C@H](Cc2ccccc2)NC(=O)[C@H]2NC(=O)[C@H](CC(C)C)NC(=O)[C@H]([C@@H](C)O)NC(=O)[C@H](CC(=O)O)NC(=O)[C@H](CO)NC(=O)[C@H](CCCNC(=N)N)N(C)C(=O)c3ccccc3CSC2(C)C)C(=O)O)C(=O)O)NC1=O` [compound 204] (I: [NMeR]SDTL[Pen]F[dE][dK]-OH / II: [NMeR]SDTL[Pen]F[dE][dK]-OH; linker I:9-II:9 via Diglycolyl; linker I:N-I:6, II:N-II:6 via X1), the half-life is over 3 h.

Compound `CC(C)C[C@@H]1NC(=O)[C@H]([C@@H](C)O)NC(=O)[C@H](CC(=O)O)NC(=O)[C@H](CO)NC(=O)[C@H](CCCNC(=N)N)N(C)C(=O)c2ccccc2CSC[C@@H](C(=O)N2Cc3ccccc3C[C@H]2C(=O)N[C@H](CCC(=O)O)C(=O)N[C@H](CCCCNC(=O)COCC(=O)NCCCC[C@@H](NC(=O)[C@@H](CCC(=O)O)NC(=O)[C@@H]2Cc3ccccc3CN2C(=O)[C@@H]2CSCc3ccccc3C(=O)N(C)[C@@H](CCCNC(=N)N)C(=O)N[C@@H](CO)C(=O)N[C@@H](CC(=O)O)C(=O)N[C@@H]([C@@H](C)O)C(=O)N[C@@H](CC(C)C)C(=O)N2)C(=O)O)C(=O)O)NC1=O` [compound 207] (I: [NMeR]SDTLC[Tic][dE][dK]-OH / II: [NMeR]SDTLC[Tic][dE][dK]-OH; linker I:9-II:9 via Diglycolyl; linker I:N-I:6, II:N-II:6 via X1) came in with a half-life of over 3 h.

Compound `CC(C)C[C@@H]1NC(=O)[C@H]([C@@H](C)O)NC(=O)[C@H](CC(=O)O)NC(=O)[C@H](CO)NC(=O)[C@H](CCCNC(=N)N)N(C)C(=O)c2ccccc2CSC(C)(C)[C@@H](C(=O)N[C@@H](Cc2ccc(-c3ccccc3)cc2)C(=O)N[C@H](CCC(=O)O)C(=O)N[C@H](CCCCNC(=O)COCC(=O)NCCCC[C@@H](NC(=O)[C@@H](CCC(=O)O)NC(=O)[C@H](Cc2ccc(-c3ccccc3)cc2)NC(=O)[C@H]2NC(=O)[C@H](CC(C)C)NC(=O)[C@H]([C@@H](C)O)NC(=O)[C@H](CC(=O)O)NC(=O)[C@H](CO)NC(=O)[C@H](CCCNC(=N)N)N(C)C(=O)c3ccccc3CSC2(C)C)C(=O)O)C(=O)O)NC1=O` [compound 208] (I: [NMeR]SDTL[Pen][Bip][dE][dK]-OH / II: [NMeR]SDTL[Pen][Bip][dE][dK]-OH; linker I:9-II:9 via Diglycolyl; linker I:N-I:6, II:N-II:6 via X1) came in with a half-life of over 3 h.
